Experimental data reported in publication PMC12041855 (2025).

How the values were obtained:
[1] = tested on: Zar1 5′-UTR (RNA, G4) UGGGCGGGCGAGGCGCGGGACGCACCC; test: ITC; conditions: 60 mM KCl, 25 mM KH2PO4; pH 7.4, 0.4% DMSO, 25°C; one set of sites; 10 μM RNA, 100 μM BYBX in syringe
[2] = tested on: Zar1 5′-UTR^ΔrG4 (RNA, single strand) UGAACAAACGAAACACGAAACGCACCC; test: ITC; conditions: 60 mM KCl, 25 mM KH2PO4; pH 7.4, 0.4% DMSO, 25°C; n.d., signal too weak; 100 μM BYBX in syringe
[3] = tested on: Zar1 5′-UTR (RNA, G4) UGGGCGGGCGAGGCGCGGGACGCACCC; test: CD titration; conditions: 100 mM KCl; 10 mM Tris-HCl pH 7.4, 25°C; 5 μM RNA, 5-20 μM BYBX
[4] = tested on: Zar1 5′-UTR (RNA, G4) UGGGCGGGCGAGGCGCGGGACGCACCC; test: CD melting at 262 nm; conditions: 20 mM KCl; 10 mM Tris-HCl pH 7.4; 10 μM BYBX, 5 μM RNA
[5] = tested on: Zar1 5′-UTR^ΔrG4 (RNA, single strand) UGAACAAACGAAACACGAAACGCACCC; test: CD melting at 262 nm; conditions: 20 mM KCl; 10 mM Tris-HCl pH 7.4; 10 μM BYBX, 5 μM RNA; no melting transition seen
[6] = tested on: Zar1 5′-UTR (RNA, G4) UGGGCGGGCGAGGCGCGGGACGCACCC; test: fluorescence titration (ex 447 nm, em 538 nm); conditions: 100 mM KCl; 10 mM Tris-HCl pH 7.4, 25°C; 1 μM BYBX, RNA 0-1.9 μM; 50-fold enhancement
[7] = tested on: Zar1 5′-UTR^ΔrG4 (RNA, single strand) UGAACAAACGAAACACGAAACGCACCC; test: fluorescence titration (ex 447 nm, em 538 nm); conditions: 100 mM KCl; 10 mM Tris-HCl pH 7.4, 25°C; 1 μM BYBX; almost no emission

For `CN1/C(=C/C2=[N+](CC(N)=O)c3ccc4ccccc4c3C2(C)C)Sc2ccccc21`, the KD [1] was 0.393 µM, the binding [2] was “no” and the binding [3] was “yes”. The ΔTm [4] was 11 °C, the ΔTm [5] was 0.06 °C and the binding [6] was “yes”. The binding [7] was “no”.
